Consider 3 molecules from US20230134935A1, “MEDICAL USE OF DARIDOREXANT” (Idorsia Pharmaceuticals Ltd, priority 2020, published 2023).

In series [1] the test system is adult and elderly subjects with insomnia disorder. Put plainly: Phase 3 double-blind placebo-controlled polysomnography study, Example A (NCT03545191), 25 mg and 50 mg. It is filed as in vivo, human. The settings on record: for IDSIQ sleepiness domain score: month 1 and month 3. The method, then: (§1) Daridorexant entered two phase 3 multi-center, double-blind, randomized, placebo-controlled, parallel-group, polysomnography study to assess the efficacy and safety of ACT-541468 in adult and elderly subjects with insomnia disorder. (NCT03545191, EudraCT Number: 2017-004642-20 testing strengths of 25 mg and 50 mg; and NCT03575104, EudraCT Number: 2017-004643-20 testing strengths of 10 mg and 25 mg). To assess daytime functioning, said phase 3 studies investigate as a secondary endpoint the IDSIQ sleepiness domain score, using as a dedicated patient reported outcome (PRO) instrument the Insomnia Daytime Symptoms and Impacts Questionnaire (IDSIQ) (S. Hudgens et al., The Patient—Patient-Centered Outcomes Research (2021) 14:249-268). The instrument is based on the Daytime Insomnia Symptom Scale (DISS) (Buysse et al., Sleep Medicine 8 (2007) 198-208; Buysse et al., SLEEP 29(9) (2006) 1155-1173) and designed to characterize and compare daytime symptoms in insomnia. The IDSIQ is structured in three domains (alertness/cognition; (negative) mood; tiredness/sleepiness) and contains overall 14 items, each based on an 11-point numeric rating scale. For each domain score the total rating score of all associated items is considered.
Example A): Multi-Center, Double-Blind, Randomized, Placebo-Controlled, Parallelgroup, Polysomnography Study to Assess the Efficacy and Safety of ACT-541468 in Adult and Elderly Subjects with Insomnia Disorder
The study comprises the following 3 phases: the screening phase, the treatment phase, and the safety follow-up phase. The screening phase starts with the signature of the informed consent form at Visit 1 and ends at Randomization (Visit 4), provided the subject fulfills all the eligibility criteria. It includes the Screening period and the Run-in period. The screening phase lasts […]. The Screening period starts with Visit 1 and ends at Visit 2. During the Screening period, the investigator verifies eligibility criteria and eligible subjects perform a one-night polysomnography (PSG) assessment. The Screening period lasts 7 to 18 days to allow time to perform all required procedures at Visit 1, the PSG assessment and collect the minimum number of eDiary entries (i.e., 7 days) between Visit 1 and Visit 2. The Run-in period starts with Visit 2 and ends at Randomization (i.e., Visit 4). At Visit 2 eligible subjects are allocated a single-blinded placebo treatment that is taken daily. During the Run-in period subjects come to the site for Visit 3, which consists of 2 PSG nights and is performed when the subject has completed the eDiary for at least 7 days and eligibility is confirmed. The Run-in period lasts 13 to 24 days, to allow collection of the minimum number of eDiary entries (i.e., 7 days), perform 2 PSG nights at Visit 3, and receive the eligibility confirmation from the PSG central reader. The double-blind (DB) treatment phase lasts 3 months. It starts at Randomization (Visit 4). DB study treatment is taken daily. A safety telephone call is performed at Visit 5 to collect information about adverse events (AEs) and concomitant medications. Sleep parameters of each subject are objectively assessed with 2 consecutive PSG nights at Visit 6 and Visit 8. A safety visit without PSG night is performed at Visit 7. An eDiary is completed every day during the treatment phase. End-of-Double-Blind-Treatment (EODBT) is reached in the second morning of Visit 8. The safety follow-up phase starts after EODBT. It consists of a single-blind placebo run-out period of 7 days and a safety follow-up period. The Run-out period starts in the evening of Visit 9. Visit 9 consists of one PSG night on single-blind placebo treatment. Visit 9 is followed by 6 days at home with single-blind placebo treatment. The eDiary is completed every day during the Run-out period. The end of the Run-out period (End-of-Treatment [EOT]) is reached after all visit assessments have been performed at Visit 10. […]

Series [2] relates to subjects with insomnia disorder. Conditions: cited from earlier work; for visual analog scales (VASs) on morning sleepiness, daytime alertness, and daytime ability to function: compared with placebo at week 2, higher doses, not sustained at week 4.
Series [3] relates to adult and elderly subjects with insomnia disorder. Briefly: Phase 3 double-blind placebo-controlled polysomnography study, Example B (NCT03575104), 10 mg and 25 mg. In kind it is in vivo, human. As to the method: as §1
Example B): Multi-Center, Double-Blind, Randomized, Placebo-Controlled, Parallelgroup, Polysomnography Study to Assess the Efficacy and Safety of ACT-541468 in Adult and Elderly Subjects with Insomnia Disorder
The study (NCT03575104) is conducted in analogy to the study of Example A), using daridorexant strengths of 10 mg and 25 mg.

In another series the test system is rat. The settings on record: cited from earlier work.
Series [4] has as its system animal model of agitation. Conditions: in vivo; cited from earlier work.
For series [5] the following is noted: in vivo; cited from earlier work.
Where [6] appears, read: 25 mg and 50 mg once daily in the evening, Month 1 and Month 3, vs placebo.
The mark [7] stands for this setting: both doses (25 mg, 50 mg), all timepoints, vs placebo.
Where [8] appears, read: 10 mg, month 1 and month 3, vs placebo.
Setting [9] is: 25 mg, month 1 and month 3, vs placebo.

“Also recorded” adds a separate entry of the source.

Take `COc1ccc(-n2nccn2)c(C(=O)N2CCC[C@@]2(C)c2nc3c(C)c(Cl)ccc3[nH]2)c1` [daridorexant, [(S)-2-(5-Chloro-4-methyl-1H-benzoimidazol-2-yl)-2-methyl-pyrrolidin-1-yl]-(5-methoxy-2-[1,2,3]triazol-2-yl-phenyl)-methanone]: in series [1] (setting [6]), the “change from baseline in LPS (latency to persistent sleep, sleep onset)” value is “significant reductions”; the “change from baseline in WASO (wake time after sleep onset, sleep maintenance)” value is given as “significant reductions”; the “change from baseline in subjective total sleep time (sTST)” value is listed as “increased the subjective total sleep time (sTST) significantly”. Besides, the incidence of somnolence result in series [1] (25 mg and 50 mg vs placebo) is “low (lower with daridorexant 50 mg versus placebo) and not dose dependent”. Also, the “IDSIQ sleepiness domain score” value in series [1] (25 mg, vs placebo) is “numerical trend; also recorded: numerical improvement”. In addition, in series [1] (50 mg dose group compared to placebo), the falls entry is listed as “Fewer falls”. The “IDSIQ sleepiness domain score” value in series [1] (50 mg, vs placebo) is listed as “significantly improved”. In addition, in series [1] (3 months of treatment), the “daytime functioning over time” value is given as “gradual improvement” and the “improvements in sleep (WASO, LPS, sTST) over time” value was “maintained over 3 months; also recorded: maintained over three months”. In series [1] (adult and elderly patients), the “tolerability / safety profile” value is “well tolerated”. Further, in series [1] (setting [7]), the “IDSIQ alert/cognition domain score” value is “decreased; also recorded: improved”, the “IDSIQ mood domain score” value was “decreased; also recorded: improved” and the IDSIQ total score entry is “decreased; also recorded: improved”. Besides, the “rate of adverse events” value in series [1] (both treatment doses vs placebo) was “comparable between placebo and daridorexant”. The “next-morning sleepiness effect assessed by visual analog scale (VAS)” value in series [1] (every morning) is on record as “no next-morning sleepiness effect”. Also, in series [1] (in vivo), the “most frequent treatment-emergent adverse events (TEAEs)” value is “nasophyringitis and headache”; the “suicide, suicidal ideation, or self-injury” value is recorded as “no suicide, suicidal ideation, or self-injury”. Besides, in series [1] (placebo group compared to daridorexant treatment groups), the “number of serious adverse events” value is reported as “higher in the placebo group”. The “rebound insomnia or withdrawal symptoms upon discontinuation” value in series [1] (upon discontinuation) was “no rebound insomnia, or withdrawal symptoms”. Moreover, the “morning sleepiness (sleepiness the following day)” value in series [2] (any dose vs placebo) was “no difference”. In addition, in series [2], the “visual analog scales (VASs) on morning sleepiness, daytime alertness, and daytime ability to function” value was “nonsignificant increases”. Moreover, the “wake time after sleep onset” value in series [2] (phase 2, subjects with insomnia disorder) is listed as “dose-dependent reduction”. The “next-morning residual drug effects” value in series [2] (up to and including the highest dose (50 mg)) is “absence of such effects”. Besides, in series [3] (setting [8]), the WASO entry is on record as “not” and the sTST result is reported as “not”. For the same molecule, the IDSIQ sleepiness domain entry in series [3] (25 mg, both time points) was “numerical trend”. Moreover, the LPS after log-transformation entry in series [3] (25 mg, month 1 and month 3) is “significantly reduced; also recorded: significant after log-transformation”. Further, in series [3] (setting [9]), the WASO result is “significantly decreased” and the sTST result is “increased”. Moreover, in series [3] (25 mg, vs placebo, without log-transformation), the “decrease in LPS” value is reported as “did not reach statistical significance”. Further, in the series with rat, the “crossing of the blood-brain barrier” value is “cross the blood-brain barrier” and the “sleep promotion (effects on active wake, home cage activity, NREM sleep, REM sleep)” value is on record as “promote sleep”. Also, the “activity in animal model of agitation” value in series [4] is recorded as “active”.
Regarding `Cc1ccc(-n2nccn2)c(C(=O)N2CCN(c3nc4cc(Cl)ccc4o3)CC[C@H]2C)c1` [suvorexant], in series [5], the “halflife (t½)” value was 12 h.
As for `Cc1ccc(-c2nc3ccc(C)cn3c2CC(=O)N(C)C)cc1` [zolpidem, reference compound], the “visual analog scales (VASs) on morning sleepiness, daytime alertness, and daytime ability to function” value in series [2] is given as “pattern was also true”.
